Structures can show the parent of a compound that is named as a salt. Where two headings read alike, the source gives them in different places.
How the values were obtained:
[1] = molecular target: adenosine receptor; experiment: adenosine receptor antagonism assayed by the procedure described in Proc. Natl. Acad. Sci. USA, 77, 5547 (1980); format: binding; conditions: procedure of Proc. Natl. Acad. Sci. USA, 77, 5547 (1980)
Source text: The relevant teachings of this manuscript are incorporated herein by reference.

[2] = molecular target: adenosine receptor; conditions: *Results reported in Proc. Natl. Acad. Sci. USA, 77, 5547(1980); cited from earlier work

SMILES | IC50 [1] | IC50 [2]
CCn1c(=O)c2[nH]c(-c3cccc(S(=O)(=O)O)c3)nc2n(CC)c1=O [C2 H5, C2 H5, H, 3-SO3 K, 3-(1,3-diethyl-2,3,6,7-tetrahydro-2,6-dioxo-1H-purin-8-yl)benzenesulfonic acid potassium salt] | 37000 nM | 
CCn1c(=O)c2[nH]c(-c3ccc(S(=O)(=O)N4CCOCC4)cc3)nc2n(CC)c1=O [C2 H5, C2 H5, H, 4-SO2 N(CH2 CH2)2 O, 4-[[4-(1,3-Diethyl-2,3,6,7-tetrahydro-2,6-dioxo-1H-purin-8-yl)phenyl]sulfonyl]morpholine] | 300 nM | 
Cn1c(=O)c2[nH]c(-c3ccc(S(=O)(=O)O)cc3)nc2n(C)c1=O [CH3, CH3, H, 4-SO3 H, 4-(1,3-dimethyl-2,3,6,7-tetrahydro-2,6-dioxo-1H-purin-8-yl)benzenesulfonicacid] |  | 20000 nM
CCCn1c(=O)c2[nH]c(-c3ccc(S(=O)(=O)O)cc3)nc2n(CCC)c1=O [n-C3 H7, n-C3 H7, H, 4-SO3 K, 4-(1,3-dipropyl-2,3,6,7-tetrahydro-2,6-dioxo-1H-purin-8-yl)benzenesulfonic acid potassium salt] | 100 nM | 
Cn1c(=O)c2[nH]cnc2n(C)c1=O [theophylline] |  | 15000 nM

Now from value to compound, other results behind:

IC50 [1] | SMILES | IC50 [2]
550 nM | CCn1c(=O)c2[nH]c(-c3cccc(S(=O)(=O)NCCN(C)C)c3)nc2n(CC)c1=O [C2 H5, C2 H5, H, 3-SO2 NH(CH2)2 N(CH3)2, 3-(1,3-Diethyl-2,3,6,7-tetrahydro-2,6,-dioxo-1H-purin-8-yl)-N-[2-(dimethylamino)ethyl]benzenesulfonamide] | 
150 nM | CCn1c(=O)c2[nH]c(-c3ccc(S(=O)(=O)N4CCN(C)CC4)cc3)nc2n(CC)c1=O [C2 H5, C2 H5, H, 4-SO2 N(CH2 CH2)2 NCH3, 1-[[4-(1,3-Diethyl-2,3,6,7-tetrahydro-2,6,-dioxo-1H-purin-8-yl)phenyl]sulfonyl]-4-methyl-piperazine] | 
50 nM | CCn1c(=O)c2[nH]c(-c3ccc(S(N)(=O)=O)cc3)nc2n(CC)c1=O [C2 H5, C2 H5, H, 4-SO2 NH2, 4-(1,3-diethyl-2,3,6,7-tetrahydro-2,6-dioxo-1H-purin-8-yl)benzenesulfonamide] | 
70 nM | CCn1c(=O)c2[nH]c(-c3ccc(S(=O)(=O)NCCCN(C)C)cc3)nc2n(CC)c1=O [C2 H5, C2 H5, H, 4-SO2 NH(CH2)3 N(CH3)2, 4-(1,3-Diethyl-2,3,6,7-tetrahydro-2,6-dioxo-1H-purin-8-yl)-N-[3-(dimethylamino)propyl]benzenesulfonamide] | 
4900 nM | CCn1c(=O)c2[nH]c(-c3ccc(S(=O)(=O)O)cc3)nc2n(CC)c1=O [C2 H5, C2 H5, H, 4-SO3 K] | 
10 nM | CCCn1c(=O)c2[nH]c(-c3ccc(S(=O)(=O)NCCN(C)C)cc3)nc2n(CCC)c1=O [N-[2-(Dimethylamino)ethyl]-4-(2,3,6,7-tetrahydro-2,6-dioxo-1,3-dipropyl-1H-purin-8-yl)benzenesulfonamide] | 

Reference: US4452788A, “Substituted 8-phenylxanthines” (Warner-Lambert Company, priority 1982, dated 1984)
